Molecular target: T1, human plasma protein factor Xa (Homo sapiens, UniProt P00742)
T1 construct: measure proteolytic activity of the enzyme (factor Xa); purchased Haematologic Technologies (Essex Junction, Vt.); host or cells: human plasma
Experiment: Factor Xa IC50 determination: cleavage of paranitroanilide substrate S-2765 in 96-well plates
Format: biochemical
Conditions: fXa 1 nM, S-2765 100 μM, Tris buffered saline pH 7.4, room temperature
How it was run: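 Initial rates of S-2765 (100 μM final) cleavage, read at 405 nm for 2 min, fitted with a four-parameter equation to give IC50. Enzyme: 1 nM human plasma fXa, 5 min room-temperature preincubation with inhibitor (0.01 nM–10 μM) in 20 mM Tris, 150 mM NaCl, 5 mM CaCl2, 0.1% BSA, 5% DMSO, pH 7.4; duplicates.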

T1 sequence (P00742 235-488 limits assumed): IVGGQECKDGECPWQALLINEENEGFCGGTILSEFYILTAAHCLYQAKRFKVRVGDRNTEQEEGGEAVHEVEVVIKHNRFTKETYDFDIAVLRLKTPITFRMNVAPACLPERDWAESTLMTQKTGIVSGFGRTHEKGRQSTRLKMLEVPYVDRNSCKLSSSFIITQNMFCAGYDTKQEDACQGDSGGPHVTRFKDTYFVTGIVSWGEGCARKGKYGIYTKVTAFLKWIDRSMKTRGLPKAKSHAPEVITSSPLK
T1 sequence (P00742 41-179 partner limits assumed): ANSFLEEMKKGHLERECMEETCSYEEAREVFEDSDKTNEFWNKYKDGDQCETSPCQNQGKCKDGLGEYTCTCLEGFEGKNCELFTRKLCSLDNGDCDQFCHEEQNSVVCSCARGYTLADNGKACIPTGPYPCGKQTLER

SMILES	IC50 [nM]
CN(C)C(=N)c1ccc(-c2csc(CNC(=O)c3ccc(Cl)s3)n2)cc1 [Example 360, N-((4-(4-(N,N-Dimethylcarbamimidoyl)phenyl)thiazol-2-yl)methyl)-5-chlorothiophene-2-carboxamide]	≥ 500
CC(O)CNC(=O)c1ccc(C2=NOC(CNC(=O)c3ccc(Cl)s3)C2)cc1 (centres unmarked) [Example 399, N-((3-(4-((2-Hydroxypropyl)carbamoyl)phenyl)-4,5-dihydroisoxazol-5-yl)methyl)-5-chlorothiophene-2-carboxamide]	≥ 500
CN(Cc1cc(-c2ccc(C3=NCCN3C)cc2)no1)C(=O)c1ccc(Cl)s1 [Example 36, 5-Chloro-thiophene-2-carboxylic acid methyl-{3-[4-(1-methyl-4,5-dihydro-1H-imidazol-2-yl)-phenyl]-isoxazol-5-ylmethyl}-amide]	≥ 500
CN(C)Cc1ccc(-c2cccc(C3=NOC(CNC(=O)c4ccc(Cl)s4)C3)c2)cc1 (centres unmarked) [Example 266, 5-Chloro-thiophene-2-carboxylic acid [3-(4′-dimethylaminomethyl-biphenyl-3-yl)-4,5-dihydro-isoxazol-5-ylmethyl]-amide]	≥ 500
O=C(NCc1cc(-c2ccc(NCc3ccccc3)cc2)no1)c1ccc(Cl)s1 [Example 258, 5-Chloro-thiophene-2-carboxylic acid [3-(4-benzylamino-phenyl)-isoxazol-5-ylmethyl]-amide]	≥ 500
O=C(NCc1cc(-c2ccc(Cl)cc2)no1)c1ccc(Cl)s1 [Example 155, 5-Chloro-thiophene-2-carboxylic acid [3-(4-chloro-phenyl)-isoxazol-5-ylmethyl]-amide]	≥ 500
C#CCN(C)C(=N)c1ccc(C2=NOC(CNC(=O)c3ccc(Cl)s3)C2)cc1 (centres unmarked) [Example 13, 5-Chloro-thiophene-2-carboxylic acid {3-[4-(N-methyl-N-prop-2-ynyl-carbamimidoyl)-phenyl]-4,5-dihydro-isoxazol-5-ylmethyl}-amide]	100 to 500
COC[C@H]1CCCN1c1ccc(C2=NOC(CNC(=O)c3ccc(Cl)s3)C2)cc1 (some centres unmarked) [Example 236, 5-Chloro-thiophene-2-carboxylic acid {3-[4-(2-methoxymethyl-pyrrolidin-1-yl)-phenyl]-4,5-dihydro-isoxazol-5-ylmethyl}-amide]	≥ 500
O=C(NCC1CC(c2ccc(Nc3ccc(F)cc3)cc2)=NO1)c1ccc(Cl)s1 (centres unmarked) [Example 223, 5-Chloro-thiophene-2-carboxylic acid {3-[4-(4-fluoro-phenylamino)-phenyl]-4,5-dihydro-isoxazol-5-ylmethyl}-amide]	≥ 500
O=C(NCC1CC(c2cccc(-c3ccc(CN4CCCC4)cc3)c2)=NO1)c1ccc(Cl)s1 (centres unmarked) [Example 267, 5-Chloro-thiophene-2-carboxylic acid [3-(4′-pyrrolidin-1-ylmethyl-biphenyl-3-yl)-4,5-dihydro-isoxazol-5-ylmethyl]-amide]	≥ 500
O=C(NCc1nc(-c2ccc(-n3ccccc3=O)cc2)no1)c1ccc(Cl)s1 [Example 311, 5-Chloro-N-((3-(4-(2-oxopyridin-1(2H)-yl)phenyl)-1,2,4-oxadiazol-5-yl)methyl)thiophene-2-carboxamide]	≤ 100
CC(C)Oc1cc(C2=NCCN2C)ccc1-c1cc(CNC(=O)c2ccc(Cl)s2)on1 [Example 127, 5-Chloro-thiophene-2-carboxylic acid {3-[2-isopropoxy-4-(1-methyl-4,5-dihydro-1H-imidazol-2-yl)-phenyl]-isoxazol-5-ylmethyl}-amide]	≤ 100
CN1CCN=C1c1ccc(C2=NOC(CNC(=O)c3ccc(Cl)s3)C2)c(N2CCCC2)c1 (centres unmarked) [Example 79, 5-Chloro-thiophene-2-carboxylic acid {3-[4-(1-methyl-4,5-dihydro-1H-imidazol-2-yl)-2-pyrrolidin-1-yl-phenyl]-4,5-dihydro-isoxazol-5-ylmethyl}-amide]	100 to 500
CN(Cc1cc(-c2ccc(C(=N)N3CCC3)cc2)no1)C(=O)c1ccc(Cl)s1 [Example 40, 5-Chloro-thiophene-2-carboxylic acid {3-[4-(azetidin-1-yl-imino-methyl)-phenyl]-isoxazol-5-ylmethyl}-methyl-amide]	≥ 500
O=C(NCC1CC(c2ccc(Nc3ccncc3)cc2)=NO1)c1ccc(Cl)s1 (centres unmarked) [Example 226, 5-Chloro-thiophene-2-carboxylic acid {3-[4-(pyridin-4-ylamino)-phenyl]-4,5-dihydro-isoxazol-5-ylmethyl}-amide]	≤ 100
CSc1cc(C(=N)N(C)C)ccc1C1=NOC(CNC(=O)c2ccc(Cl)s2)C1 (centres unmarked) [Example 136, 5-Chloro-thiophene-2-carboxylic acid {3-[4-(N,N-dimethyl-carbamimidoyl)-2-methylsulfanyl-phenyl]-4,5-dihydro-isoxazol-5-ylmethyl}-amide]	≤ 100
CN(C)CCN(C)C(=N)c1ccc(-c2nc(CNC(=O)c3ccc(Cl)s3)cs2)cc1 [Example 355, N-((2-(4-(N-(2-(Dimethylamino)ethyl)-N-methylcarbamimidoyl)phenyl)thiazol-4-yl)methyl)-5-chlorothiophene-2-carboxamide]	≥ 500
COc1ccc(-c2ccc(C3=NOC(CNC(=O)c4ccc(Cl)s4)C3)cc2)c(CO)c1 (centres unmarked) [Example 207, 5-Chloro-thiophene-2-carboxylic acid [3-(2′-hydroxymethyl-4′-methoxy-biphenyl-4-yl)-4,5-dihydro-isoxazol-5-ylmethyl]-amide]	≥ 500

Next, values leading:

IC50 [nM]	SMILES
≤ 100	CC1(CNC(=O)c2ccc(Cl)s2)CC(c2ccc(C(N3CCC3)=[N+]3CCC3)cc2)=NO1 (centres unmarked) [Example 63, 5-Chloro-thiophene-2-carboxylic acid {3-[4-(azetidin-1-yl-azetidin-1-ylidene-methyl)-phenyl]-5-methyl-4,5-dihydro-isoxazol-5-ylmethyl}-amide]
≤ 100	COc1cc(C2=NCCN2C)ccc1C1=NOC(CNC(=O)c2ccc(Cl)s2)C1 (centres unmarked) [Example 103, 5-Chloro-thiophene-2-carboxylic acid {3-[2-methoxy-4-(1-methyl-4,5-dihydro-1H-imidazol-2-yl)-phenyl]-4,5-dihydro-isoxazol-5-ylmethyl}-amide]
≤ 100	O=C(NCc1cn(-c2ccc(-n3ccccc3=O)cc2F)nn1)c1ccc(Cl)s1 [Example 305, 5-Chloro-N-((1-(2-fluoro-4-(2-oxopyridin-1(2H)-yl)phenyl)-1H-1,2,3-triazol-4-yl)methyl)thiophene-2-carboxamide]
≤ 100	O=C(NCc1cn(-c2ccc(N3CCCCC3=O)cc2)nn1)c1ccc(Cl)s1 [Example 300, 5-Chloro-N-((1-(4-(2-oxopiperidin-1-yl)phenyl)-1H-1,2,3-triazol-4-yl)methyl)thiophene-2-carboxamide]
≤ 100	N=C(c1ccc(-n2cc(CNC(=O)c3ccc(Cl)s3)nn2)cc1)N1CCC1 [Example 317, N-((1-(4-(Azetidin-1-yl(imino)methyl)phenyl)-1H-1,2,3-triazol-4-yl)methyl)-5-chlorothiophene-2-carboxamide]
≤ 100	CCOc1cc(C2=NCCN2C)ccc1-c1cc(CNC(=O)c2ccc(Cl)s2)on1 [Example 123, 5-Chloro-thiophene-2-carboxylic acid {3-[2-ethoxy-4-(1-methyl-4,5-dihydro-1H-imidazol-2-yl)-phenyl]-isoxazol-5-ylmethyl}-amide]
≤ 100	CCN(CC)CCN(C)C(=O)c1ccc(C2=NOC(CNC(=O)c3ccc(Cl)s3)C2)cc1 (centres unmarked) [Example 166, 5-Chloro-thiophene-2-carboxylic acid (3-{4-[(2-diethylamino-ethyl)-methyl-carbamoyl]-phenyl}-4,5-dihydro-isoxazol-5-ylmethyl)-amide]
≤ 100	O=C(NCC1CC(c2ccc(-c3ccccn3)cc2)=NO1)c1ccc(Cl)s1 (centres unmarked) [Example 219, 5-Chloro-thiophene-2-carboxylic acid [3-(4-pyridin-2-yl-phenyl)-4,5-dihydro-isoxazol-5-ylmethyl]-amide]
≤ 100	O=C(NCC1CC(c2ccc(Nc3ccnc4ccc(C(F)(F)F)cc34)cc2)=NO1)c1ccc(Cl)s1 (centres unmarked) [Example 395, 5-Chloro-N-((3-(4-(6-(trifluoromethyl)quinolin-4-ylamino)phenyl)-4,5-dihydroisoxazol-5-yl)methyl)thiophene-2-carboxamide]
≤ 100	CCOC(=O)C1CCN(C(=N)c2ccc(-c3cc(CNC(=O)c4ccc(Cl)s4)on3)cc2)CC1 [Example 25, 1-{[4-(5-{[(5-Chloro-thiophene-2-carbonyl)-amino]-methyl}-isoxazol-3-yl)-phenyl]-imino-methyl}-piperidine-4-carboxylic acid ethyl ester]
≤ 100	CN(C)C(=N)c1ccc(-c2cc(CNC(=O)c3ccc(Cl)s3)ccc2F)cc1 [Example 377, N-((3-(4-(N,N-Dimethylcarbamimidoyl)phenyl)-4-fluorophenyl)methyl)-5-chlorothiophene-2-carboxamide]
≤ 100	N=C(c1ccc(-c2cc(CNC(=O)c3ccc(Cl)s3)on2)c(N2CCOCC2)c1)N1CCCC1 [Example 100, 5-Chloro-thiophene-2-carboxylic acid {3-[4-(imino-pyrrolidin-1-yl-methyl)-2-morpholin-4-yl-phenyl]-isoxazol-5-ylmethyl}-amide]
≤ 100	N=C(c1ccc(C2=NOC(CNC(=O)c3ccc(Cl)s3)C2)c(N2CCCCCC2)c1)N1CCCC1 (centres unmarked) [Example 92, 5-Chloro-thiophene-2-carboxylic acid {3-[2-azepan-1-yl-4-(imino-pyrrolidin-1-yl-methyl)-phenyl]-4,5-dihydro-isoxazol-5-ylmethyl}-amide]
≤ 100	COc1cccn(-c2ccc(C3=NOC(CNC(=O)c4ccc(Cl)s4)C3)cc2)c1=O (centres unmarked) [Example 282, 5-Chloro-N-((3-(4-(3-methoxy-2-oxopyridin-1(2H)-yl)phenyl)-4,5-dihydroisoxazol-5-yl)methyl)thiophene-2-carboxamide]

From patent US8377974B2 (Millennium Pharmaceuticals, Inc., priority 2004, dated 2013)
